The record followed here is US20060073188A1, “Fast-dissolving isotropic expanded microporous composition or structure for pharmaceutical, veterinary, dietetic, food or cosmetic use and method for obtaining same” (PIERRE FABRE MEDICAMENT, priority 1999, published 2006).

The series in a line: physchem.

Take `O=c1[nH]c2ccccc2n1CCCN1CCC(n2c(=O)[nH]c3cc(Cl)ccc32)CC1` [domperidone]: the solubility (commonly the concentration that dissolves in the medium under given conditions) was below 100 µg/mL.
`CN1C(C(=O)Nc2ccccn2)=C(O)c2ccccc2S1(=O)=O` [piroxicam] yielded a solubility below 100 µg/mL.
